Assay results taken from patent publication US5798365A, “Substituted quinoline derivatives, a process for their preparation, and their use” (Hoechst Aktiengesellschaft, priority 1994, dated 1998).
In brackets after ≈: the same amount, converted by molar mass. Where two headings read alike, the source gives them in different places.

How the values were obtained:
HIV = test: Testing preparations against HIV in cell culture (infected human donor lymphocytes); format: cell-based; details: for MIC: Human immunodeficiency virus 1, 72 h, lowest concentration without giant cells; for IC50: Human immunodeficiency virus 1, Lymphocyte, 72 h
Experimental: Testing preparations against HIV in cell culture
Description of the method
The complete medium additionally contains 20% foetal calf serum and 40 IU/ml recombinant interleukin 2.
Lymphocytes which have been isolated from fresh donor blood by means of Ficoll® gradient centrifugation are cultured, at 37° C. for 36 h and under 5% CO2, in complete medium in the added presence of […] phytohemagglutinin (Wellcome). After the addition of 10% DMSO, the cells are frozen at a cell density of 5×10^6 and stored in liquid nitrogen. For the experiment, the cells are thawed, washed in RPMI medium and cultured for 3-4 days in complete medium.
The preparations for testing were dissolved in DMSO at a concentration of 16.7 mg/ml and diluted to 1 mg/ml in complete medium. 0.4 ml of medium was initially introduced in 24-well multiwell plates. After 0.1 ml of the dissolved preparation had been added to the upper row of the plate, a geometrical dilution series was produced by transferring 0.1 ml on each occasion. Preparation-free controls always contained 0.4 ml of complete medium containing 0.5% DMSO.
Lymphocyte cultures having a cell count of 5×10^5 cells/ml were infected by adding a 1/50 volume of the supernatant from lymphocyte cultures infected with HIV. The titer of these culture supernatants was determined, by end point dilution, to be 1-5×10^6 infectious units/ml. After incubating at 37° C. for 30 min, the infected lymphocytes were centrifuged off and taken up once again in the same volume of medium. 0.6 ml of this cell suspension was added to each of the wells in the test plate. The assay mixtures were incubated at 37° C. for 3 days.
The infected cell cultures were examined under the microscope for the presence of giant cells, which indicate that the virus is multiplying actively in the culture. The lowest preparation concentration at which no giant cells appeared was defined as the inhibitory concentration against HIV (MIC value). As a control, the presence of HIV antigen in the supernatants from the culture plates was determined using a test for HIV antigen in accordance with the manufacturer's (Organon) instructions.

[1] = target: T1, HIV reverse transcriptase (Human immunodeficiency virus type 1 group M subtype B, UniProt P04585); test: Inhibition of HIV reverse transcriptase, scintillation proximity assay (SPA); format: biochemical; details: RT-SPA, 60 min, 37° C., read-out: Reverse Transcriptase Asaay IC-50 (converted)
T1 construct: purchased HT-Biotechnology LTD, Cambridge, UK; host or cells: E. coli
Experimental: Investigation of the ability of the substances to inhibit the HIV reverse transcriptase
The activity of the reverse transcriptase (RT) was measured by means of a scintillation proximity assay (SPA).
The reagent kit for the RT-SPA was obtained from Amersham/Buchler (Braunschweig). The RT enzyme (originating from HIV and cloned in E. coli) was provided by HT-Biotechnology LTD, Cambridge, UK.
The test was carried out in accordance with the supplier's (Amersham) methods manual--with the following modifications:
bovine serum albumin was added to the assay buffer to a final concentration of 0.5 mg/ml.
The test was carried out in Eppendorf reaction tubes using a mixture volume of […].
The supplier's RT concentrate (5000 U/ml) was diluted in 20 mM tris-HCl buffer; pH 7.2; 30% glycerol to an activity of 15 U/ml.
The assay mixtures were incubated for 60 min (at 37° C.).
After the reaction had been stopped and "developed" using the bead suspension, […] of assay mixture was transferred into 4.5 ml of 10 mM tris-HCl buffer; pH 7.4; 0.15M NaCl
and the tritium activity was measured in a β counter.
In order to carry out a preliminary test for inhibitor activity, the substances were dissolved in DMSO (stock solution concentration=1 mg/ml) and tested at 10^-1, 10^-2, 10^-3, etc. dilutions in DMSO.
In order to determine the IC50 values, the stock solutions of inhibitor were further diluted in 50 mM tris-HCl buffer, pH 8, and tested at suitable concentrations.
The concentration giving rise to 50% inhibition of the enzyme was ascertained from the graphic depiction of RT activity versus log Cinh.

[2] = HIV-infected lymphocytes, 3 days, 37° C.
[3] = HIV-infected lymphocytes, 3 days, 37° C., read-out: IC-50

## CC(C)CC=C1c2cc(Cl)ccc2NC(=S)C1(C)C [Compound 20]
HIV; [2]
  MIC: < 8 ng/mL
HIV; [3]
  IC50: 1.5 ng/mL (≈ 0.0051 µM)
[1]; molar value in parentheses
  IC50: 22 nM
[1]
  IC50: 21.4 nM

## CCCC=C1c2ccccc2NC(=S)C12CCC2 [Compound 7]
HIV; [2]
  MIC: < 8 ng/mL
HIV; [3]
  IC50: ~0.32 ng/mL (≈ 0.00124 µM)
[1]; molar value in parentheses
  IC50: 18 nM
[1]
  IC50: 19.4 nM

## CCC/C=C1\c2cc(Cl)ccc2NC(=O)C1(C)C [Compound 73, E-4-n-butylene-6-chloro-3,4-dihydro-3,3-dimethylquinolin-2(1H)-one]
HIV; [2]
  MIC: < 40 ng/mL
HIV; [3]
  IC50: 20 ng/mL (≈ 0.0758 µM)
[1]; molar value in parentheses
  IC50: 30 nM
[1]
  IC50: 30.3 nM

## COc1ccc2c(c1)C(=CCC(C)C)C(C)(C)C(=S)N2 [Compound 69]
HIV; [2]
  MIC: < 20 ng/mL
HIV
  IC50: ~1.8 ng/mL (≈ 0.00622 µM)
[1]; molar value in parentheses
  IC50: 18 nM
[1]
  IC50: 17.3 nM

## CCOC(=O)/C=C1\c2cc(Cl)ccc2NC(=S)C1(C)C [Compound 142]
HIV; [2]
  MIC: < 200 ng/mL
HIV; [3]
  IC50: 4 ng/mL (≈ 0.0129 µM)
[1]
  IC50: 123 nM

## CCCC=C1c2cc(Cl)ccc2NC(=NO)C1(C)C [Compound 60]
HIV; [2]
  MIC: 1.6 ng/mL (≈ 0.00574 µM)
HIV; [3]
  IC50: ~0.3 ng/mL (≈ 0.00108 µM)
[1]; molar value in parentheses
  IC50: 12 nM
[1]
  IC50: 10.8 nM

## CCC=C1c2cc(OC)ccc2NC(=S)C1(C)C [Compound 45]
HIV; [2]
  MIC: 4 ng/mL (≈ 0.0153 µM)
HIV; [3]
  IC50: 2 ng/mL (≈ 0.00765 µM)
[1]; molar value in parentheses
  IC50: 9 nM
[1]
  IC50: 9.18 nM

## CCC=C1c2ccccc2NC(=S)C1(CC)CC [Compound 51]
HIV; [2]
  MIC: 20 ng/mL (≈ 0.0771 µM)
HIV; [3]
  IC50: ~2 ng/mL (≈ 0.00771 µM)
[1]; molar value in parentheses
  IC50: 23 nM
[1]
  IC50: 23.1 nM

## CCCC=C1c2cc(Cl)ccc2NC(=O)C1(C)C [Compound 2, 4-n-Butylene-6-chloro-3,4-dihydro-3,3-dimethylquinolin-2(1H)-one]
HIV; [2]
  MIC: 100 ng/mL (≈ 0.379 µM)
HIV; [3]
  IC50: ~15 ng/mL (≈ 0.0569 µM)
[1]; molar value in parentheses
  IC50: 63 nM
[1]
  IC50: 64.5 nM

## CC(C)C=C1c2cc(Cl)ccc2NC(=S)C1(C)C [Compound 18]
HIV; [2]
  MIC: < 8 ng/mL
HIV; [3]
  IC50: 2 ng/mL (≈ 0.00715 µM)
[1]; first value of compound 18, unit as printed
  IC50: 54.3 nM
[1]; molar value in parentheses
  IC50: 55 nM

## CCCC=C1c2ccccc2NC(=S)C1(CC)CC [Compound 49]
HIV; [2]
  MIC: < 20 ng/mL
HIV; [3]
  IC50: ~2 ng/mL (≈ 0.00731 µM)
[1]; molar value in parentheses
  IC50: 24 nM
[1]
  IC50: 25.6 nM
